Assays:
[1] = system: Mycobacterium tuberculosis; experiment: Induction of resistance development in Mycobacterium tuberculosis harbouring atpE gene assessed as resistance frequency at 5 times of MIC by visual analysis; format: functional
[2] = system: Mycobacterium tuberculosis; experiment: Induction of resistance development in Mycobacterium tuberculosis harbouring katG F594C mutant assessed as resistance frequency at 5 times of MIC by visual analysis; format: functional

Compound | Activity [1] [%] | Activity [2] [%]
COc1nc2ccc(Br)cc2cc1[C@@H](c1ccccc1)[C@@](O)(CCN(C)C)c1cccc2ccccc12 [BEDAQUILINE] | 17.3 | 5.26
C[C@]1(COc2ccc(N3CCC(Oc4ccc(OC(F)(F)F)cc4)CC3)cc2)Cn2cc([N+](=O)[O-])nc2O1 |  | 2
